Source: paper PMC11277004, “Di- and Triselenoesters—Promising Drug Candidates for the Future Therapy of Triple-Negative Breast Cancer” (International Journal of Molecular Sciences, 2024)
Where two headings read alike, the source gives them in different places.

What was measured:
Type in all cases: cell-based, human
Bcl-2 = Bcl-2 protein level by flow cytometry, MDA-MB-231; details: 24 h
Protocol: (§1) For this purpose, Akt (PE), Bax (FITC), Bcl-2 (Alexa Fluor® 647), LC3A/B (Alexa Fluor® 488), and p53 (Alexa Fluor® 488) antibodies conjugated to different fluorochromes (all from Cell Signaling Technology, Beverly, MA, USA) were utilized. Each assay was performed according to the manufacturer's protocol available on their website. After incubation with the tested compounds, the cells were centrifuged, resuspended in 4% formaldehyde (100 μL/1 × 10^6 cells), and fixed for 15 min at room temperature. Afterward, to remove the formaldehyde, the cells were washed by centrifugation with excess PBS and the permeabilization step was triggered. For this purpose, ice-cold 90% methanol was added to the pre-chilled cell pellet, gently vortexed, and incubated for 1 h on ice. Later, the cells were washed by centrifugation with excess PBS again, resuspended in 100 μL of 1:100 diluted primary antibody (stain buffer was used for dilution), and incubated for 1 h at room temperature in the dark. After incubation, the cells were washed, resuspended in 300 μL PBS, and immediately tested with a flow cytometer (BD FACSCanto II, BD Biosciences Systems, San Jose, CA, USA; 10,000 events measured). The obtained results were analyzed using the FACSDiva 6.0 software (BD Biosciences Systems, San Jose, CA, USA). In the case of the p53 protein, the MRF values were obtained first during the flow cytometer readout utilizing FACSDiva software and later analyzed using FCS Express 7 (De Novo Software, Pasadena, CA, USA). The equipment calibration was performed using the BD Cytometer Setup and Tracking Beads (BD Biosciences, San Diego, CA, USA).

[1] = system: MCF-7 breast cancer cells; assay: MTT cytotoxicity test, MCF-7; details: MCF-7, 24 h incubation, read-out: IC50, cell viability (MTT)
Protocol: MCF-7 and MDA-MB-231 human breast cancer cell lines, as well as MCF-10A normal human breast epithelial cells, were acquired from the American Type Culture Collection (ATCC, Manassas, VA, USA). The characteristics of the breast cancer cell lines used in this study are compared in Table 1. MCF-7 and MDA-MB-231 cells were cultured in Dulbecco’s modified Eagle’s medium (Gibco, San Diego, CA, USA), while MCF-10A cells were cultured in the mammary epithelial cell growth medium with the following supplements: BPE, hEGF, insulin, hydrocortisone, GA-1000 (Lonza, Basel, Switzerland). All media were complemented by 10% of fetal bovine serum (FBS) and 1% of the following antibiotics: penicillin and streptomycin (both Gibco, San Diego, CA, USA). The cells were maintained in an incubator that provides the optimal growth conditions for the cell culture: 5% CO2, 37 °C, and humidity in a range of 90–95%. The cells were cultured in 100 mm plates (Sarstedt, Newton, NC, USA). Subsequently, after obtaining a subconfluent cell culture, the cells were detached with 0.05% trypsin with 0.02% EDTA (Gibco, San Diego, CA, USA). […] In this study, cells that obtained 80% confluence were used. The MTT assay was used to determine the cytotoxic effects of the compounds in the study on MCF-7 and MDA-MB-231 breast cancer cells as well as MCF-10A normal human breast epithelial cells based on Carmichael’s method. […] After this time, the medium was removed, and the cell monolayer was washed with warm phosphate-buffered saline (PBS) without calcium and magnesium. In the next step, PBS and MTT solution in PBS (5 mg/mL) were added to each well to obtain a final MTT concentration of 0.5 mg/mL, and then the cells were incubated for 4 h (37 °C temperature, 5% CO2, 90–95% humidity). After the incubation period, the contents of each well were removed, 1 mL of DMSO was added to dissolve the formazan, and then the plate with the added DMSO was mixed for 5–10 min on a microplate shaker (Boeco, Hamburg, Germany). Then, 10 µL of Sorensen’s glycine buffer (a solution of 0.1 M glycine and 0.1 M sodium chloride adjusted to pH 10.5 with 0.1 M sodium hydroxide) was added. The absorbance of the obtained solution was immediately measured at a wavelength of λ = 570 nm using a Thermo Scientific Evolution 201 UV–VIS spectrophotometer (Thermo Fisher Scientific, Waltham, MA, USA). The absorbance result obtained in the control cells (without the addition of the tested compounds) was taken as 100%, while the viability of cells incubated with the tested compounds was presented as a percentage of the control value.

caspase 9 = assay: Caspase 9 activity (FAM-FLICA, flow cytometry), MCF-7; details: 24 h
Protocol: The FAM-FLICA® Caspase Assay kits (all from ImmunoChemistry Technologies, Bloomington, MN, USA) and flow cytometer (BD FACSCanto II, BD Biosciences Systems, San Jose, CA, USA) were used to evaluate the activity of caspase 3/7, 8, and 9. MCF-7 and MDA-MB-231 cells were treated with selenoesters under the study (EDAG-1 and EDAG-8) and a reference agent (cisplatin) at two different concentrations (0.5 and 1 µM; treatment duration: 24 h). Following this, cells were collected, washed twice with cold PBS, and resuspended in an Apoptosis Wash Buffer to a final concentration of 5 × 10^5 cells/mL. In the next step, 290 µL each of cell suspension was taken and transferred into tubes. Then 10 µL of FLICA solution diluted immediately before use (1:5 v/v, using PBS) was added to the cells, mixed by pipetting, and incubated in the dark for 1 h at 37 °C. After this time, the cells were washed twice with 2 mL Apoptosis Wash Buffer, centrifuged, and resuspended in 300 µL of the buffer. Thus, prepared samples were immediately analyzed using a BD FACSCanto II flow cytometer (10,000 events) with the FACSDiva 6.0 software (both from BD Biosciences Systems, San Jose, CA, USA). The equipment calibration was carried out using the BD Cytometer Setup and Tracking Beads (BD Biosciences, San Diego, CA, USA).

Bax = Bax protein level by flow cytometry, MDA-MB-231; details: 24 h
Protocol: as §1

SMILES	Bcl-2 negative cells ± SD (Bcl-2; MDA-MB-231, 0.5 μM) [%]	Bcl-2 negative cells ± SD (Bcl-2; MDA-MB-231, 1 μM) [%]	IC50 [1] [nM]	Active caspase 9 ± SD (cells) (caspase 9; MCF-7, 0.5 μM) [%]	Active caspase 9 ± SD (cells) (caspase 9; MCF-7, 1 μM) [%]	Bax positive cells ± SD (Bax; MDA-MB-231, 0.5 μM) [%]	Bax positive cells ± SD (Bax; MDA-MB-231, 1 μM) [%]	IC50 ([1]; Homo sapiens, MCF7) [nM]
N.N.[Cl][Pt][Cl] [Cisplatin, reference compound]	4.3 ± 0.3	4.5 ± 0.6	> 5000	5.9 ± 0.1	6.1 ± 0.6	1.3 ± 0.3	1.4 ± 0.1	
CC(=O)C[Se]C(=O)c1ccc(C(=O)[Se]CC(C)=O)cc1 [EDAG-1, Se,Se-bis(2-oxopropyl) benzene-1,4-bis(carboselenoate)]	36.1 ± 1.6	68.9 ± 5.7		7.1 ± 0.7	12.8 ± 1.4	12.5 ± 2.3	37.8 ± 5.1	470 ± 60
CC(=O)C[Se]C(=O)c1cc(C(=O)[Se]CC(C)=O)cc(C(=O)[Se]CC(C)=O)c1 [EDAG-8, Se,Se,Se-tris-(2-oxopropyl) benzene-1,3,5-tris-(carboxyselenoate)]	51.7 ± 3.5	74.9 ± 2.7		15.5 ± 0.5	22.8 ± 2.4	34.5 ± 3.4	60.3 ± 8.8	610 ± 50
